Experimental data: patent publication US5756527A, “Imidazole derivatives useful as modulators of multi drug resistances” (Ontogen Corporation, priority 1997, dated 1998)
pEC50: −log10 of the molar value.

Columns and labels:
CEM/VLB1000 [1] = assay: Cytotoxicity potentiation (alamar blue) of vinblastine in multidrug-resistant cells; assay type: cell-based; details: midpoint of minimum and maximum cytotoxicity induced by 3-5 μg/mL vinblastine and compound, 48 h
Method: Multidrug-resistant cell lines are easily obtainable for in vitro determination of drug sensitization by compounds of the present invention. In vitro potentiation of antineoplastic cytotoxicity by the imidazole derivatives of the present invention was measured in both CEM/VLB1000 and SK/VLB1000 cell lines. The multidrug resistant cell lines were obtained from Dr. Victor Ling, Ontario Cancer Institute, Toronto, Canada. The CEM/VLB 1000 cell line was maintained as a suspension in minimum essential medium supplemented with 10% fetal bovine serum in a humidied atmosphere of 95% air and 5% CO2 while the SK/VLB 1000 cell line was maintained as adherent cells using the identical medium conditions as the CEM cells. The CEM/VLB 1000 cells were seeded at a density of 5×10^4 cells/well in a 96 well microtiter plate while the SK/VLB 1000 cell line was seeded at a density of 2,500 cells/well after trypsinization. Vinblastine (5 μg/mL, for the CEM cells) or Taxol (3 μg/mL, for the SK cells) and compound (0.01 to 50 μM) were added directly to the wells. After an incubation of 48 hours in presence of drug, alamar blue (B. Page et al., Int. J. Oncol. 3: 473-476, 1993) was added (10 μL to the 200 μL cell suspension) for a period of 24 hours after which the fluorescence (excitation=530 nm, emission=590 nm) was read for each well using a "CytoFluor" microtiter fluorometer plate reader. This assay measures the effective concentration of compound necessary to enhance the cytotoxicity (EC50) of vinblastine in the MDR cell line.
^1 Values presented are the midpoint (EC50) of the minimum and
maximum cytotoxicity induced by 3-5 μg/mL vinblastine and the specific
compound of the present invention.

CEM/VLB1000 [2] = assay: [3H]-vinblastine (VLB) accumulation assay; assay type: cell-based; details: midpoint of minimum and maximum increase in accumulation of 3H-vinblastine (275 nM), 3 hours at 37° C.
Method: ^3 H-vinblastine accumulation was also measured in the CEM/VLB1000 cell line. Corning Easy-Wash 96 well plates were pretreated with PBS and 1% BSA for 60 minutes and then removed. CEM/VLB1000 cells were seeded at 2×10^5, 40 μL volume. Plates were incubated at 37° C. for 30-60 minutes prior to use. The reference reversing agent, verapamil, or the compound of the present invention was added to the well followed by addition of media containing ^3 H-vinblastine (final concentration=275nM). Plates were allowed to incubate for 3 hours at 37° C. Cells were harvested onto pretreated Wallace filtermats A (pretreated with 0.1% polyethyleneimine) using a TomTek harvester-96. After filtering, the filtermats were allowed to dry completely. Meltix B scintillant was then added to the filtermats. The filters were then placed in a 90° C. oven for approximately 3-5 minutes and then removed. Scintillant was allowed to solidify on the filtermats. Filtermats were then placed in sample bags and read on a Wallace BetaPlate scintillation counter. The effects of compounds of the present invention in the cytotoxicity potentiation assays and vinblastine (VLB) accumulation assay are given in the Table below:
^2 Values presented are the midpoint (EC50) of the minimum and
maximum increase in accumulation of ^3 Hvinblastine caused by the
specific compound of the present invention.

Row | SMILES | pEC50 (CEM/VLB1000 [1]) | pEC50 (CEM/VLB1000 [2])
1 | CNc1ccc(-c2[nH]c(-c3ccc(F)c(/C=C/C(=O)OC)c3)nc2-c2ccc(N(C)C)cc2)cc1 [Example 59, 2-[4-fluoro-3-(trans-methylpropenoate)phenyl]-4-[(4-N,N-dimethylamino)phenyl]-5-[(4-N-methylamino)phenyl] imidazole] | 6.24 | 5.49
2 | COC(=O)/C=C/c1ccc(-c2nc(-c3ccc(N(C)C)cc3)c(-c3ccc(N(C)C)cc3)[nH]2)s1 [Example 61] | 6.66 | 5.74
3 | CCN(CC)c1ccc(-c2nc(-c3ccc(/C=C/C(=O)OC(C)C)cc3)[nH]c2-c2ccc(NC)cc2)cc1 [Example 41, 2-[4-(trans-i-propylpropenoate)phenyl]-4-[(4-N,N-diethylamino)phenyl]-5-[(4-N-methylamino)phenyl] imidazole] | 6.38 | 5.22
4 | COC(=O)/C=C/c1ccc(-c2nc(-c3ccc(N)cc3)c(-c3ccc(N(C)C)cc3)[nH]2)cc1 [Example 51, 2-[4-(trans-methylpropenoate)phenyl]-4-[(4-N,N-dimethylamino)phenyl]-5-(4-aminophenyl) imidazole] | 6.32 | 5.59
5 | CC(C)OC(=O)/C=C/c1ccc(-c2nc(-c3ccc(N(C)C)cc3)c(-c3ccc(N(C)C)cc3)[nH]2)cc1 [Example 38, 2-[4-(trans-i-propylpropenoate)phenyl]-4,5-bis[(4-N,N-dimethylamino)phenyl]imidazole] | 6.86 | 5.62
6 | CC(C)OC(=O)/C=C/c1ccc(-c2nc(-c3ccc(N(C)C)cc3)c(-c3ccc(N(C)C)cc3)[nH]2)s1 [Example 65, 2-[3-(trans-i-propylpropenoate)thienyl]-4,5-bis[(4-N,N-dimethylamino)phenyl] imidazole] | 6.68 | 5.40
7 | COC(=O)/C=C/c1ccc(OC)c(-c2nc(-c3ccc(N(C)C)cc3)c(-c3ccc(N(C)C)cc3)[nH]2)c1 [Example 56, 2-[2-methoxy-5-(trans-methylpropenoate)phenyl]-4,5-bis(4-N,N-dimethylaminophenyl) imidazole] | 6.90 | 5.55
8 | COC(=O)/C=C/c1cc(-c2nc(-c3ccc(N(C)C)cc3)c(-c3ccc(N(C)C)cc3)[nH]2)ccc1OC [Example 55, 2-[4-methoxy-3-(trans-methylpropenoate)phenyl]-4,5-bis(4-N,N-dimethylaminophenyl) imidazole] | 6.43 | 5.22
